Data reported in patent US20190314256A1, “COSMETIC BASE INCLUDING AMIDE ALCOHOL ESTER, AND COSMETIC” (Kokyu Alcohol Kogyo Co., Ltd., priority 2016, published 2019).

Columns and labels:
Assay type in all cases: physicochemical
[1] = Solubility and gelling ability with each liquid; critical gelation concentration by sample tube inversion method; set-up: key: S: Soluble; I: Insoluble/separation; G: Gel; T: Thickening; EG: Emulsion gel
Method: The amide alcohol or ester of amide alcohol was heated and mixed with each liquid, and the critical gelation concentration was measured by sample tube inversion method.
Sample tube used: used tube: Maruemu screw tube No. 7 (trunk diameter 35 mm total length 78 mm)

[2] = as above; conditions: physical form of the ester
[3] = Pigment dispersibility (wet point WP and flow point FP); conditions: titanium oxide, zinc oxide, iron oxide
Excerpt: 1. Weigh 1.5 g of a pigment in mortar. 2. Gradually add an oil dropwise and knead with a pestle. 3. Check the weight of the oil at each point of WP and FP. 4. Calculate WP and FP per 100 g of the pigment. WP: Wet point (the lower the wet point, the better the wettability of the pigment.) FP: Flow point (the lower the flow point, the better the dispersibility of the pigment.)

[4] = Viscosity

Row | Molecule | solubility and gelling ability ([1]; Ethanol) | solubility and gelling ability ([1]; Glycerin) | solubility and gelling ability ([1]; Octyldodecanol) | solubility and gelling ability ([1]; Octyldodecyl myristate) | solubility and gelling ability ([1]; Squalane) | solubility and gelling ability ([1]; Triethylhexanoin) | solubility and gelling ability ([1]; Water) | Property [2] | pigment dispersibility [3] | viscosity [4]
1 | CCCCCCCCCCCC(=O)OCCCC(=O)NC1CCCCC1 [CHBA-L, N-cyclohexylbutyramide-4-lauric acid ester] | S | I | G | G | G | G | I | Solid |  | 
2 | N-2 ethylhexylbutyramide 4-isostearic acid ester [EHBA-IS] |  |  |  |  |  |  |  |  | excellent pigment dispersibility | approximately 270 mPa·s
3 | N-cyclohexylbutyramide-4-isostearic acid ester [CHBA-IS] |  |  |  |  |  |  |  |  | excellent pigment dispersibility | approximately 230 mPa·s

Continued, values first:

Row | solubility and gelling ability ([1]; Ethanol) | solubility and gelling ability ([1]; Glycerin) | solubility and gelling ability ([1]; Octyldodecanol) | solubility and gelling ability ([1]; Octyldodecyl myristate) | solubility and gelling ability ([1]; Squalane) | solubility and gelling ability ([1]; Triethylhexanoin) | solubility and gelling ability ([1]; Water) | Property [2] | pigment dispersibility [3] | viscosity [4] | Molecule
4 | S | I | S | S | I | I | I | Solid |  |  | CCCCCCCCCCCC(=O)OCCCC(=O)NCC(CC)CCCC (centres unmarked) [EHBA-L, N-2 ethylhexylbutyramide-4-lauric acid ester]
5 | G | I | G | G | G | G | I | Solid |  |  | CCCCCCCCCCCCNC(=O)CCCOC(=O)CCCCCCCCCCC [LBA-L, N-laurylbutyramide-4-lauric acid ester]
6 | G | I | G | G | G | G | I | Solid |  |  | CCCCCCCCCCCCCC(=O)OCCCC(=O)NCCCCCCCCCCCC [LBA-M, N-laurylbutyramide-4-myristic acid ester]
7 | S | I | G | G | G | G | I | Solid |  |  | CCCCCCCCCCCC(=O)OCCCC(=O)NCCCCCCCC [OBA-L, N-octylbutyramide-4-lauric acid ester]
